Legend:
Assay type in all cases: biochemical
hFAAH = target: T1, hFAAH (Homo sapiens, UniProt O00519); experiment: FAAH activity, membranes of hFAAH overexpressing COS-7 cells, 3H-anandamide; conditions: read-out: hFAAH Remaining activity % control (mean (range)), n=2
T1 construct: expressed in transfected cells; host or cells: COS-7
T1 sequence (O00519 1-579): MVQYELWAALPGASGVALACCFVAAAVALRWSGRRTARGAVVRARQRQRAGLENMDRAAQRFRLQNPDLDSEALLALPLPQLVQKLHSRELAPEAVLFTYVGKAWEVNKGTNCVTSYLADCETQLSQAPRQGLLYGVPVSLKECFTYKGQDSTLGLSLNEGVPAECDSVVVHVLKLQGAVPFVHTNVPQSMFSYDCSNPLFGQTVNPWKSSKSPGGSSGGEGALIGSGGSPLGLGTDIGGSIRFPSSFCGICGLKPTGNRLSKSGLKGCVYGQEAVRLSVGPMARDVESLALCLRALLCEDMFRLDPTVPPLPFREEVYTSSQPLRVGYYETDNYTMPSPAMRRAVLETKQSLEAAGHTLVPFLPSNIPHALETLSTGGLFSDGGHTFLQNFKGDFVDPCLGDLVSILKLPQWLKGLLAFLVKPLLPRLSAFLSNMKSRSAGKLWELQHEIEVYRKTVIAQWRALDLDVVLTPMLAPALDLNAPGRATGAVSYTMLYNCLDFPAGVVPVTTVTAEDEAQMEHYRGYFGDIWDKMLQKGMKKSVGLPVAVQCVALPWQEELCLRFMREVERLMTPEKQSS
Method: (§1) Glycerol liberated from 1-AG hydrolysis was determined with a sensitive fluorescent assay using lysates of HEK293 cells with transient overexpression of hABHD12, hABHD6 or hMAGL, essentially as previously described. […] Fluorescence (λex 530; λem 590 nm) was monitored using a Tecan Infinite M200 plate reader (Tecan Group Ltd., Männedorf, Switzerland). Inhibitory activities of selected compounds towards FAAH were determined using membranes of hFAAH overexpressing COS-7 cells, essentially as previously described. The final incubation volume (100 µL) contained 1 µg of protein and the substrate concentration was 20 µM (10 nM of ^3H-anandamide having specific activity of 60 Ci/mmol and concentration of 1 mCi/mL).

hMAGL = target: T2, hMAGL (Homo sapiens, UniProt Q99685); experiment: Fluorescent glycerol assay in hMAGL-HEK293 lysates; conditions: for remaining activity at 10 µM: read-out: hMAGL Remaining activity % control ± s.e.m (n=3)
T2 construct: expressed in transfected cells; host or cells: HEK293 (transient)
T2 sequence (Q99685 1-303): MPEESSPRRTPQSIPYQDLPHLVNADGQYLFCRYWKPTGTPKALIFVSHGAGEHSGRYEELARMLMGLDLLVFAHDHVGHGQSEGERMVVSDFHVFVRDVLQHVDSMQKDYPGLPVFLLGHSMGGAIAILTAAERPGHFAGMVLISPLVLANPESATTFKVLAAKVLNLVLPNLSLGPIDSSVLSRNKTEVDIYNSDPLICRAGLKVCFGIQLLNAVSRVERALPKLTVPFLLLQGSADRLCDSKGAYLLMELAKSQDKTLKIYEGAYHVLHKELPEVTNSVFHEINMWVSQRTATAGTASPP
Method: as §1

CB1R [1] = target: T3, CB1R (Rattus norvegicus, UniProt P20272); experiment: [35S]GTPγS binding, CB1R antagonist activity, rat cerebellar membranes; conditions: 10 µM
T3 construct: membranes prepared from brain tissue of 4-week-old male rodents were used; from tissue; host or cells: rat cerebellar membranes
T3 sequence (P20272 whole entry): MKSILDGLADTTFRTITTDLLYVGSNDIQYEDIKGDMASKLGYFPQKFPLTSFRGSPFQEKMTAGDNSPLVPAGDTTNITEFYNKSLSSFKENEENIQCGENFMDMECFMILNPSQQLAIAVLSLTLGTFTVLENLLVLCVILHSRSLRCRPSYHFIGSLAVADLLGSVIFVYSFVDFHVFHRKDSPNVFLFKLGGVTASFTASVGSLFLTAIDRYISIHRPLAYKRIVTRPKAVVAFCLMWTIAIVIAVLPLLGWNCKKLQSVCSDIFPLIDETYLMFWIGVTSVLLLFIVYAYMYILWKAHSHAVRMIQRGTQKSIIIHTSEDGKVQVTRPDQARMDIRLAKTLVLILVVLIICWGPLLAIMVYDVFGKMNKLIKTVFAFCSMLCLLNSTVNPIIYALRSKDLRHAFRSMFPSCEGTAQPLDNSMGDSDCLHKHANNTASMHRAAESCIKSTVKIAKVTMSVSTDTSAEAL
Method: (§2) The CB1 and CB2 receptor activity of the selected compounds (10 µM) were measured using the GTPγS binding assay according to the previously described methods, [33].
(§3) For ABPP experiments (Figure 6C) and cannabinoid receptor activity assays (Table S2), membranes prepared from brain tissue of 4-week-old male rodents were used. The animals were obtained from the National Laboratory Animal Centre, University of Eastern Finland. Approval for the harvesting of animal tissue was obtained from the local welfare officer of the University of Eastern Finland.

hABHD12 [2] = target: T4, hABHD12 (Homo sapiens, UniProt Q8N2K0); experiment: LC-MS assay of ABHD12 activity (1-AG utilization / AA formation) in hABHD12-HEK293 lysates; conditions: n = 2, dose-response by LC-MS; for IC50: s.d.
T4 construct: expressed in transfected cells; host or cells: HEK293 (transient)
T4 sequence (Q8N2K0 1-398): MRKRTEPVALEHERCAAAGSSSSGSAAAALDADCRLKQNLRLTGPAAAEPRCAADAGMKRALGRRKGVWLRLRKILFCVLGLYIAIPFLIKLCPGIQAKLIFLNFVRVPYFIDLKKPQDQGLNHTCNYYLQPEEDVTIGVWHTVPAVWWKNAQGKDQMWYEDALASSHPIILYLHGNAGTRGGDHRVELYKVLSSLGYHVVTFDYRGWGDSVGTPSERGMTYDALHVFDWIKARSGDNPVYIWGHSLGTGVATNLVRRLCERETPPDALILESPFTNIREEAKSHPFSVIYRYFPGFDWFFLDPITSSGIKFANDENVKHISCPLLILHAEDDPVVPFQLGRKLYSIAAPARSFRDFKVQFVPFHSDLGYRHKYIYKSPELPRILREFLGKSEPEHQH
Method: The fluorescent glycerol assay was mimicked otherwise but instead of assaying glycerol, utilization of 1-AG and concomitant formation of AA was monitored by LC-MS analysis. […] Enzymatic reaction was stopped by adding 400 µL of cold 11 mM H3PO4 in acetonitrile. 150 µL aliquots were filtered using Captiva 96-well filter plate (0.2 µm, Agilent Technologies, USA) into the Captiva 96-well collection plate (Agilent Technologies, USA) containing 50 µL of 0.1% formic acid in H2O. The collection plate was centrifuged at 4°C for 10 minutes and the samples were analyzed by LC-MS. HPLC system consisted of an Agilent 1200 Series Rapid Resolution LC System (Agilent Technologies, Waldbronn, Germany) with a solvent micro vacuum degasser, a binary pump, a thermostatted column compartment, and an autosampler. The mass analysis was made with an Agilent 6410 Triple Quadrupole MS equipped with an electrospray ionization (ESI) source (Agilent Technologies, Palo Alto, CA, USA). Five microliters of the sample solution were injected onto a reversed-phase HPLC column (Zorbax Eclipse XDB-C18 Rapid Resolution HT 2.1 mm×50 mm, 1.8 µm) (Agilent Technologies, Palo Alto, CA, USA) using an isocratic mobile phase consisting of 0.1% formic acid in a solution of H2O and methanol (20∶80 v/v) delivered at 0.5 mL/min. Column temperature was maintained at 50°C and the autosampler tray temperature was set at 4°C. The following ionization conditions were used for 1-AG: positive ESI mode, drying gas (nitrogen) temperature 300°C, drying gas flow rate 8 L/min, nebulizer pressure 40 psi, and capillary voltage 4000 V. The following ionization conditions were used for AA: negative ESI mode, drying gas (nitrogen) temperature 300°C, drying gas flow rate 8 L/min, nebulizer pressure 40 psi, and capillary voltage 4000 V. Analyte detection was performed using multiple reaction monitoring (MRM) with the following transitions: m/z 379 → 287 for 1-AG and m/z 303 → 303 for AA. Fragmentor voltage and collision energy for 1-AG and AA were 130 V/8 V and 175 V/2 V, respectively. […] In addition, the 2-AG positional isomer is chromatographically separated from 1-AG with retention time 2.1 min, and the peak areas of 1-AG and 2-AG were subsequently combined for all quantitative analyses reported and are thus collectively termed “1-AG”. The calibration range of 0.1–2,000 ng/mL and 0.1–1,000 ng/mL was prepared for monitored 1-AG and AA, respectively. The lower limit of quantification (LLOQ) for both analytes, 1-AG and AA, was 1.0 ng/mL.

hABHD6 = target: T5, hABHD6 (Homo sapiens, UniProt Q9BV23); experiment: Fluorescent glycerol assay in hABHD6-HEK293 lysates; conditions: for remaining activity at 10 µM: NI = no inhibition at 10 µM, read-out: hABHD6 Remaining activity % control ± s.e.m (n=3)
T5 construct: expressed in transfected cells; host or cells: HEK293 (transient)
T5 sequence (Q9BV23 1-337): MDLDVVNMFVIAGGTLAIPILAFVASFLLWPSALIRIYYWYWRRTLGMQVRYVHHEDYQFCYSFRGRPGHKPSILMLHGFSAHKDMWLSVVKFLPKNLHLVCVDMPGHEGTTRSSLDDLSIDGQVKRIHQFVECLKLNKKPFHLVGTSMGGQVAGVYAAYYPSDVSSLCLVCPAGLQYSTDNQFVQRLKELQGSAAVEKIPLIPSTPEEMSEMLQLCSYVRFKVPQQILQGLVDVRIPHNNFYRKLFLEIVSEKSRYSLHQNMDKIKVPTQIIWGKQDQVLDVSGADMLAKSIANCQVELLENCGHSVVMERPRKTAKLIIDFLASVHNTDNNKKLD
Method: as §1

CB1R [3] = target: T3, CB1R; experiment: [35S]GTPγS binding, CB1R agonist activity, rat cerebellar membranes
Method: as §2, §3

hCB2R = target: T6, hCB2R (Homo sapiens, UniProt P34972); experiment: [35S]GTPγS binding, CB2R agonist activity, hCB2R-CHO cell membranes
T6 construct: expressed in transfected cells; host or cells: CHO
T6 sequence (P34972 whole entry): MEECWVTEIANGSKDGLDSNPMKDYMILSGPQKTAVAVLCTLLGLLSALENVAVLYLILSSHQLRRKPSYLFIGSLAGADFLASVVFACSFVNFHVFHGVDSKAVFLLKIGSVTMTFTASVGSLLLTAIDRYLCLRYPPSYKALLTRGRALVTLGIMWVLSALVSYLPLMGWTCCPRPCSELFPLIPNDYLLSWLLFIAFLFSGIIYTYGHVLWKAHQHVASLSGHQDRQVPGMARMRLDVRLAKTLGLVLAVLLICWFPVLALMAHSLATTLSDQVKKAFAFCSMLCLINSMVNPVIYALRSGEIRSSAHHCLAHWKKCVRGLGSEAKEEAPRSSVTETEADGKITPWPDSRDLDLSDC

hABHD12 [4] = target: T4, hABHD12; experiment: Fluorescent glycerol assay of 1-AG hydrolysis in hABHD12-HEK293 lysates; conditions: for Emax: read-out: max inhibition (converted)
Method: as §1

[5] = hABHD12-HEK293 lysates, three independent experiments, read-out: -logIC50±s.e.m. (converted)
[6] = hABHD12-HEK293 lysates, read-out: IC50

Compound	remaining activity at 10 µM (hFAAH) [%]	remaining activity at 10 µM (hMAGL) [%]	IC50 (hABHD12 [2]) [µM]	remaining activity at 10 µM (hABHD6) [%]	IC50 (hABHD12 [4]; [6]) [µM]	Emax (hABHD12 [4]; hABHD12-HEK293 lysates) [%]	other results
C=C(C)[C@@H]1CC[C@]2(C(=O)O)CC[C@]3(C)[C@H](CC[C@@H]4[C@@]5(C)CC[C@H](O)C(C)(C)[C@@H]5CC[C@]43C)[C@@H]12 [Compound 1, Betulinic acid, reference compound]	83	76.7 ± 0.1	2.51	~70	–	–	CB1R antagonist activity [35S]GTPγS binding % HU210-evoked response (Mean (range), n=2) (CB1R [1]): 99 (98-99) % HU210-evoked response; CB1R agonist activity [35S]GTPγS binding % Basal (Mean (range), n=2) (CB1R [3]; 10 µM): 91 (87-96) % Basal; CB2R agonist activity [35S]GTPγS binding % Basal (Mean (range), n=2) (hCB2R; 10 µM): 132 (106-158) % Basal
C[C@H]1[C@H](C)CC[C@]2(C(=O)O)CC[C@]3(C)C(=CC[C@@H]4[C@@]5(C)CC[C@H](O)C(C)(C)[C@@H]5CC[C@]43C)[C@H]12 [Compound 4, Ursolic acid, reference compound]	–	–	1.82	–	–	–	effect on MAGL activity (hMAGL; preliminary screening): negligible effect; hABHD12 inhibitory activity (in words) (hABHD12 [4]): selectively inhibit ABHD12; remaining activity at 10 µM (hABHD12 [4]; hABHD12-HEK293 lysates, 10 µM, NI = no inhibition, read-out: Remaining activity at 10 µM % ± s.e.m.): ~30%; effect on ABHD6 activity (hABHD6; preliminary screening): negligible effect
C=C(C)[C@@H]1CC[C@]2(C=O)CC[C@]3(C)[C@H](CC[C@@H]4[C@@]5(C)CCC(=O)C(C)(C)[C@@H]5CC[C@]43C)[C@@H]12 [Compound 17]	95	84.1 ± 4.8	–	93.6 ± 3.8	4.4	57	IC50 (hABHD12 [4]; [5]): 4.47 µM
C=C(C)[C@@H]1CC[C@]2(C(=O)O)CC[C@]3(C)[C@H](CC[C@@H]4[C@@]5(C)CCC(=O)C(C)(C)[C@@H]5CC[C@]43C)[C@@H]12 [Compound 18]	–	–	3.31	–	–	–	max inhibition (hABHD12 [2]): 100%
C=C(C)[C@@H]1CC[C@]2(C=NO)CC[C@]3(C)[C@H](CC[C@@H]4[C@@]5(C)CC[C@H](O)C(C)(C)[C@@H]5CC[C@]43C)[C@@H]12 [Compound 24]	95	86 ± 4.3	–	92.4 ± 3.9	6.5	61	–
C=C(C)[C@@H]1CC[C@]2(C=NO)CC[C@]3(C)[C@H](CC[C@@H]4[C@@]5(C)CCC(=NO)C(C)(C)[C@@H]5CC[C@]43C)[C@@H]12 [Compound 25]	97	88.7 ± 4.2	3.98	103 ± 2.3	–	–	max inhibition (hABHD12 [2]): 76%
C=C(C)[C@@H]1CC[C@]2(C(=O)O)CC[C@]3(C)[C@H](CC[C@@H]4[C@@]5(C)CC6OC(C)(C)OC6C(C)(C)[C@@H]5CC[C@]43C)[C@@H]12 (some centres unmarked) [Compound 31]	91	82.7 ± 4.1	–	93.2 ± 3	7.5	90	IC50 (hABHD12 [4]; [5]): 7.41 µM
C=C(C)[C@@H]1CC[C@]2(C(=O)O)CC[C@]3(C)[C@H](CC[C@@H]4[C@@]5(C)CCC(=O)NC(C)(C)[C@@H]5CC[C@]43C)[C@@H]12 [Compound 36]	88	54.1 ± 4.7	–	80 ± 4.4	9.1	88	–
CCCCCCC(C)(C)c1cc(O)c2c(c1)OC(C)(C)[C@@H]1CC=C(CO)C[C@@H]21 [HU210]	–	–	–	–	–	–	CB1R agonist activity [35S]GTPγS binding % basal ± SEM, n > 3 (CB1R [3]; reference compound at 1 µM): 430 ± 36 % Basal; CB2R agonist activity [35S]GTPγS binding % Basal (Mean (range), n=2) (hCB2R; 10 nM): 354 (348-361) % Basal
SR144528	–	–	–	–	–	–	CB2R agonist activity [35S]GTPγS binding % Basal (Mean (range), n=2) (hCB2R; 1 µM): 68 (60-76) % Basal

— article PMC4045134, “Discovery of Triterpenoids as Reversible Inhibitors of α/β-hydrolase Domain Containing 12 (ABHD12)” (PLoS ONE, 2014)
